Test results taken from the supplement of paper PMC10307832.

Assays:
Assay in all cases: relative viability (nuclei count vs DMSO), 5 days (fraction); higher = more cells survive
ABC-1 = tested on: ABC-1
Method in brief: (§1)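 One day after seeding in 1536-well plates, lung cancer cell lines were dosed by pin tool. Dosing was either single-drug or a fixed anchor-drug dose plus five library-drug doses (not always all listed) in √10 steps. After 5 days, nuclei were stained in one fix-and-stain step and counted on 4× images, and relative viability is the nuclei count of treated wells over that of vehicle wells, given as the median of duplicate plates.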

NCI-H23 = tested on: NCI-H23
Method in brief: as §1

LCLC-103H = tested on: LCLC-103H
Method in brief: as §1

NCI-H1975 = tested on: NCI-H1975
Method in brief: as §1

IA-LM = tested on: IA-LM
Method in brief: as §1

EBC-1 = tested on: EBC-1
Method in brief: as §1

NCI-H647 = tested on: NCI-H647
Method in brief: as §1

HCC-78 = tested on: HCC-78
Method in brief: as §1

RERF-LC-KJ = tested on: RERF-LC-KJ
Method in brief: as §1

NCI-H1793 = tested on: NCI-H1793
Method in brief: as §1

LOU-NH91 = tested on: LOU-NH91
Method in brief: as §1

NCI-H1792 = tested on: NCI-H1792
Method in brief: as §1

EPLC-272H = tested on: EPLC-272H
Method in brief: as §1

NCI-H1395 = tested on: NCI-H1395
Method in brief: as §1

NCI-H1651 = tested on: NCI-H1651
Method in brief: as §1

201T = tested on: 201T
Method in brief: as §1

NCI-H1437 = tested on: NCI-H1437
Method in brief: as §1

NCI-H1915 = tested on: NCI-H1915
Method in brief: as §1

UMC-11 = tested on: UMC-11
Method in brief: as §1

EMC-BAC-2 = tested on: EMC-BAC-2
Method in brief: as §1

SK-LU-1 = tested on: SK-LU-1
Method in brief: as §1

NCI-H2405 = tested on: NCI-H2405
Method in brief: as §1

NCI-H2023 = tested on: NCI-H2023
Method in brief: as §1

NCI-H661 = tested on: NCI-H661
Method in brief: as §1

CCCCCCCCCCCC1=C(O)C(=O)C=C(O)C1=O [Embelin] + CS(=O)(=O)N1CCN(Cc2cc3nc(-c4cccc5[nH]ncc45)nc(N4CCOCC4)c3s2)CC1 [Pictilisib] (partner 1 µM)
relative viability (ABC-1; first compound 0.08 µM): 0.876 | relative viability (ABC-1; first compound 0.8 µM): 0.861 | relative viability (ABC-1; first compound 2.53 µM): 0.678 | relative viability (ABC-1; first compound 8 µM): 0.646 | relative viability (NCI-H23; first compound 0.08 µM): 0.51 | relative viability (NCI-H23; first compound 0.8 µM): 0.573 | relative viability (NCI-H23; first compound 2.53 µM): 0.475 | relative viability (NCI-H23; first compound 8 µM): 0.479 | relative viability (LCLC-103H; first compound 0.08 µM): 0.591 | relative viability (LCLC-103H; first compound 0.8 µM): 0.652 | relative viability (LCLC-103H; first compound 2.53 µM): 0.614 | relative viability (LCLC-103H; first compound 8 µM): 0.677 | relative viability (NCI-H1975; first compound 0.08 µM): 0.343 | relative viability (NCI-H1975; first compound 0.8 µM): 0.332 | relative viability (NCI-H1975; first compound 2.53 µM): 0.288 | relative viability (NCI-H1975; first compound 8 µM): 0.288 | relative viability (IA-LM; first compound 0.08 µM): 0.367 | relative viability (IA-LM; first compound 0.8 µM): 0.326 | relative viability (IA-LM; first compound 2.53 µM): 0.383 | relative viability (IA-LM; first compound 8 µM): 0.249 | relative viability (EBC-1; first compound 0.08 µM): 0.446 | relative viability (EBC-1; first compound 0.8 µM): 0.362 | relative viability (EBC-1; first compound 2.53 µM): 0.446 | relative viability (EBC-1; first compound 8 µM): 0.336 | relative viability (NCI-H647; first compound 0.08 µM): 0.423 | relative viability (NCI-H647; first compound 0.8 µM): 0.59 | relative viability (NCI-H647; first compound 2.53 µM): 0.403 | relative viability (NCI-H647; first compound 8 µM): 0.285 | relative viability (HCC-78; first compound 0.08 µM): 0.263 | relative viability (HCC-78; first compound 0.8 µM): 0.216 | relative viability (HCC-78; first compound 2.53 µM): 0.225 | relative viability (HCC-78; first compound 8 µM): 0.219 | relative viability (RERF-LC-KJ; first compound 0.08 µM): 0.494 | relative viability (RERF-LC-KJ; first compound 0.8 µM): 0.652 | relative viability (RERF-LC-KJ; first compound 2.53 µM): 0.618 | relative viability (RERF-LC-KJ; first compound 8 µM): 0.587 | relative viability (NCI-H1793; first compound 0.08 µM): 0.344 | relative viability (NCI-H1793; first compound 0.8 µM): 0.366 | relative viability (NCI-H1793; first compound 2.53 µM): 0.361 | relative viability (NCI-H1793; first compound 8 µM): 0.218 | relative viability (LOU-NH91; first compound 0.08 µM): 0.543 | relative viability (LOU-NH91; first compound 0.8 µM): 0.597 | relative viability (LOU-NH91; first compound 2.53 µM): 0.552 | relative viability (LOU-NH91; first compound 8 µM): 0.459 | relative viability (NCI-H1792; first compound 0.08 µM): 0.299 | relative viability (NCI-H1792; first compound 0.8 µM): 0.37 | relative viability (NCI-H1792; first compound 2.53 µM): 0.281 | relative viability (NCI-H1792; first compound 8 µM): 0.333 | relative viability (EPLC-272H; first compound 0.08 µM): 0.319 | relative viability (EPLC-272H; first compound 0.8 µM): 0.427 | relative viability (EPLC-272H; first compound 2.53 µM): 0.334 | relative viability (EPLC-272H; first compound 8 µM): 0.276 | relative viability (NCI-H1395; first compound 0.08 µM): 0.608 | relative viability (NCI-H1395; first compound 0.8 µM): 0.677 | relative viability (NCI-H1395; first compound 2.53 µM): 0.69 | relative viability (NCI-H1395; first compound 8 µM): 0.502 | relative viability (NCI-H1651; first compound 0.08 µM): 0.577 | relative viability (NCI-H1651; first compound 0.8 µM): 0.647 | relative viability (NCI-H1651; first compound 2.53 µM): 0.769 | relative viability (NCI-H1651; first compound 8 µM): 0.607 | relative viability (201T; first compound 0.08 µM): 0.645 | relative viability (201T; first compound 0.8 µM): 0.685 | relative viability (201T; first compound 2.53 µM): 0.649 | relative viability (201T; first compound 8 µM): 0.613 | relative viability (NCI-H1437; first compound 0.08 µM): 0.469 | relative viability (NCI-H1437; first compound 0.8 µM): 0.48 | relative viability (NCI-H1437; first compound 2.53 µM): 0.5 | relative viability (NCI-H1437; first compound 8 µM): 0.364 | relative viability (NCI-H1915; first compound 0.08 µM): 1.06 | relative viability (NCI-H1915; first compound 0.8 µM): 1.08 | relative viability (NCI-H1915; first compound 2.53 µM): 0.952 | relative viability (NCI-H1915; first compound 8 µM): 0.919 | relative viability (UMC-11; first compound 0.08 µM): 0.852 | relative viability (UMC-11; first compound 0.8 µM): 1 | relative viability (UMC-11; first compound 2.53 µM): 1.11 | relative viability (UMC-11; first compound 8 µM): 0.667 | relative viability (EMC-BAC-2; first compound 0.08 µM): 0.498 | relative viability (EMC-BAC-2; first compound 0.8 µM): 0.533 | relative viability (EMC-BAC-2; first compound 2.53 µM): 0.442 | relative viability (EMC-BAC-2; first compound 8 µM): 0.476 | relative viability (SK-LU-1; first compound 0.08 µM): 0.676 | relative viability (SK-LU-1; first compound 0.8 µM): 0.667 | relative viability (SK-LU-1; first compound 2.53 µM): 0.678 | relative viability (SK-LU-1; first compound 8 µM): 0.541 | relative viability (NCI-H2405; first compound 0.08 µM): 0.555 | relative viability (NCI-H2405; first compound 0.8 µM): 0.59 | relative viability (NCI-H2405; first compound 2.53 µM): 0.439 | relative viability (NCI-H2405; first compound 8 µM): 0.323 | relative viability (NCI-H2023; first compound 0.08 µM): 0.269 | relative viability (NCI-H2023; first compound 0.8 µM): 0.242 | relative viability (NCI-H2023; first compound 2.53 µM): 0.211 | relative viability (NCI-H2023; first compound 8 µM): 0.243 | relative viability (NCI-H661; first compound 0.08 µM): 0.41 | relative viability (NCI-H661; first compound 0.8 µM): 0.44 | relative viability (NCI-H661; first compound 2.53 µM): 0.348 | relative viability (NCI-H661; first compound 8 µM): 0.481
